Three compounds from patent US10501481B2, “Heterocyclic compounds and their use in preventing or treating bacterial infections” (priority 2015, dated 2019) can be followed below.

As a reminder, the IC50 is the concentration needed to halve the response being measured. High values mean weaker potency in that assay, low ones greater potency in that assay.

Assay [1] has as its system K. pneumoniae UFR68 (TEM-1, SHV-11, CTX-M-15, KPC-3). The assay can be described thus: MIC broth microdilution, alone and synergy with ceftazidime. To be noted: Klebsiella pneumoniae, read-out: MIC CAZ. Background: In broth dilution the organism is exposed to a series of concentrations in liquid medium.
Assay [2] relates to P. aeruginosa CIP107051 (TEM-24). The description is as above. As to conditions: for MIC: Pseudomonas aeruginosa; for MIC of CAZ in combination with compound at 4 μg/mL: strain CIP107051, compound fixed at 4 μg/mL.
Assay [3] concerns K. pneumoniae 160143 (TEM-1, SHV-1, CTX-M-15, KPC-2, OXA-1). The assay is described as above. To be noted: Klebsiella pneumoniae, read-out: MIC CAZ.
Assay [4] relates to E. cloacae 260508 (TEM-1, CTX-M-15). The assay is described as above. As to conditions: Enterobacter cloacae, read-out: MIC CAZ.
Assay [5] relates to K. pneumoniae 6299 (TEM-1, SHV-11, OXA-163). Described as above. To be noted: for MIC: Klebsiella pneumoniae.
Assay [6] deals with E. coli UFR32 (TEM-1, VEB-1, OXA-10). The description is as above. To be noted: Escherichia coli, read-out: MIC CAZ.
Assay [7] deals with P. aeruginosa UFR90 (derepressed AmpC, OprD−). Described as above. To be noted: Pseudomonas aeruginosa, read-out: MIC CAZ.
For assay [8], the system named is E. cloacae UFR70 (TEM-1, CTX-M-15, CMY-2, OXA-1, Porin loss). The description is as above. As to conditions: Enterobacter cloacae, read-out: MIC CAZ.
For assay [9], the system named is E. coli UFR52 (TEM-1, SHV-12, IMP-8). Described as above. As to conditions: Escherichia coli, read-out: MIC CAZ.
For assay [10], the system named is P. aeruginosa UFR92 (derepressed AmpC, OprD−). The description is as above. As to conditions: Pseudomonas aeruginosa, read-out: MIC CAZ.
Assay [11] concerns E. cloacae UFR38 (CTX-M-15, NDM-1). The description is as above. As to conditions: Enterobacter cloacae, read-out: MIC CAZ.
Assay [12] concerns E. cloacae P99 (AmpC). Described as above. To be noted: for MIC: Enterobacter cloacae; for MIC of CAZ in combination with compound at 4 μg/mL: strain P99, compound fixed at 4 μg/mL.
Assay [13] concerns K. pneumoniae BAA-1898 (TEM-1, SHV-11, SHV-12, KPC-2). The assay can be described thus: microbe, parasite or virus in culture. Format: cell-based. To be noted: for MIC: Klebsiella pneumoniae; for MIC of CAZ in combination with compound at 4 μg/mL: strain BAA-1898, compound fixed at 4 μg/mL.
The test system of assay [14] is K. pneumoniae UFR24 (TEM-1, SHV-2, SHV-11, OXA-1, OXA-48, OXA-47). The assay can be described thus: MIC broth microdilution, alone and synergy with ceftazidime. As to conditions: Klebsiella pneumoniae, read-out: MIC CAZ.
Assay [15] relates to E. coli UFR18 (CTX-M-15, OXA-204). The description is as above. As to conditions: Escherichia coli, read-out: MIC CAZ.
Assay [16] deals with K. oxytoca UFR21 (TEM-1, CTX-M-15, OXA-48). Described as above. As to conditions: Klebsiella oxytoca, read-out: MIC CAZ.
Assay [17] concerns C. murliniae 210102 (VIM-4). Described as above. As to conditions: read-out: MIC CAZ.
Assay [18] concerns E. coli 190317 (TEM-1, SHV-12, CTX-M-15, OXA-1). Described as above. As to conditions: for MIC: Escherichia coli; for MIC of CAZ in combination with compound at 4 μg/mL: strain 190317, compound fixed at 4 μg/mL.
Assay [19] has as its system E. coli UFR61O (TEM-1, KPC-2). The assay is described as above. To be noted: Escherichia coli, read-out: MIC CAZ.
Assay [20] relates to K. pneumoniae UFR77 (CMY-2). The assay is described as above. To be noted: Klebsiella pneumoniae, read-out: MIC CAZ.
Assay [21] relates to K. pneumoniae 200047 (TEM-1, SHV-32, CTX-M-15, OXA-1). Described as above. To be noted: Klebsiella pneumoniae, read-out: MIC CAZ.
For assay [22], the system named is E. coli 131119 (TEM-1, OXA-48). The description is as above. As to conditions: Escherichia coli.
The subject of assay [23] is E. coli UFR74 (SHV-1, DHA-1). The assay is described as above. To be noted: Escherichia coli, read-out: MIC CAZ.
Assay [24] has as its system P. aeruginosa UFR35 (OXA-23). The assay is described as above. To be noted: Pseudomonas aeruginosa, read-out: MIC CAZ.
In assay [25] the test system is E. coli RGN238 (OXA-1). The description is as above. As to conditions: Escherichia coli.
Assay [26] addresses T1, P99 AmpC (Enterobacter cloacae, UniProt P05364).
T1 construct: made in house; host or cells: E. coli
The assay can be described thus: β-lactamase inhibitory activity, nitrocefin hydrolysis. Format: biochemical. To be noted: class (C); 30 min pre-incubation; nitrocefin 200 μM.
Procedure: (§1) Enzyme activity was monitored by spectrophotometric measurement of nitrocefin (NCF-TOKU-E, N005) hydrolysis at 485 nm, at room temperature and in assay buffer A: 100 mM Phosphate pH7, 2% glycerol and 0.1 mg/mL Bovine serum albumin (Sigma, B4287). […] To a transparent polystyrene plate (Corning, 3628) were added in each well 5 μL DMSO or inhibitor dilutions in DMSO and 80 μL enzyme in buffer A. Plates were immediately read at 485 nm in a microplate spectrophotometer (BioTek, PowerWave HT) to enable background subtraction. After 30 min of pre-incubation at room temperature, 15 μL of NCF (200 μM final) were finally added in each well. Final enzyme concentrations were 0.1 nM (TEM-1), 0.075 nM (SHV-1), 0.4 nM (CTX-M-15), 1 nM (KPC-2), 0.2 nM (P99 AmpC), 0.2 nM (CMY-37), 0.4 nM (AmpC P. aeruginosa), 0.2 nM (OXA-1), 1.2 nM (OXA-11), 0.4 nM (OXA-15) and 0.3 nM (OXA-48). After 20 min incubation at room temperature, plates were once again read at 485 nm. Enzyme activity was obtained by subtracting the final signal by the background, and was converted to enzyme inhibition using non inhibited wells. IC50 curves were fitted to a classical Langmuir equilibrium model with Hill slope using XLFIT (IDBS).

In assay [27] the target is T2, OXA-1 (Escherichia coli, UniProt P13661).
T2 construct: made in house; host or cells: E. coli
Described as above. In kind it is biochemical.
Procedure: as §1

Assay [28] concerns the target T3, OXA-15 (Pseudomonas aeruginosa, UniProt Q51574).
T3 construct: made in house; host or cells: E. coli
The assay is described as above. In kind it is biochemical.
Procedure: as §1

The target in assay [29] is T4, OXA-48 (Klebsiella pneumoniae, UniProt Q6XEC0).
T4 construct: made in house; host or cells: E. coli
The assay is described as above. Format: biochemical.
Procedure: as §1

Assay [30] addresses T5, OXA-11 (Pseudomonas aeruginosa, UniProt Q06778).
T5 construct: made in house; host or cells: E. coli
Described as above. In kind it is biochemical.
Procedure: as §1

The target in assay [31] is T6, SHV-1 (Klebsiella pneumoniae, UniProt P0AD64).
T6 construct: made in house; host or cells: E. coli
The description is as above. In kind it is biochemical.
Procedure: as §1

The target in assay [32] is AmpC P. aeruginosa (Pseudomonas aeruginosa, UniProt P24735). In words: biochemical. The method, then:
Enzyme activity was monitored by spectrophotometric measurement of nitrocefin (NCF-TOKU-E, N005) hydrolysis at 485 nm, at room temperature and in assay buffer A: 100 mM Phosphate pH7, 2% glycerol and 0.1 mg/mL Bovine serum albumin (Sigma, B4287). Enzymes were cloned in E. coli expression vector, expressed and purified in house using classical procedures. To a transparent polystyrene plate (Corning, 3628) were added in each well 5 μL DMSO or inhibitor dilutions in DMSO and 80 μL enzyme in buffer A. Plates were immediately read at 485 nm in a microplate spectrophotometer (BioTek, PowerWave HT) to enable background subtraction. After 30 min of pre-incubation at room temperature, 15 μL of NCF (200 μM final) were finally added in each well. Final enzyme concentrations were 0.1 nM (TEM-1), 0.075 nM (SHV-1), 0.4 nM (CTX-M-15), 1 nM (KPC-2), 0.2 nM (P99 AmpC), 0.2 nM (CMY-37), 0.4 nM (AmpC P. aeruginosa), 0.2 nM (OXA-1), 1.2 nM (OXA-11), 0.4 nM (OXA-15) and 0.3 nM (OXA-48). After 20 min incubation at room temperature, plates were once again read at 485 nm. Enzyme activity was obtained by subtracting the final signal by the background, and was converted to enzyme inhibition using non inhibited wells. IC50 curves were fitted to a classical Langmuir equilibrium model with Hill slope using XLFIT (IDBS).

In assay [33] the target is T7, CTX-M-15 (Escherichia coli, UniProt Q9EXV5).
T7 construct: made in house; host or cells: E. coli
The assay can be described thus: β-lactamase inhibitory activity, nitrocefin hydrolysis. Format: biochemical.
Procedure: as §1

For assay [34], the target named is T8, TEM-1 (Escherichia coli, UniProt P62593).
T8 construct: made in house; host or cells: E. coli
Described as above. In kind it is biochemical. To be noted: class (A); 30 min pre-incubation; nitrocefin 200 μM.
Procedure: as §1

Assay [35] concerns the target T9, KPC-2 (Klebsiella pneumoniae, UniProt Q9F663).
T9 construct: made in house; host or cells: E. coli
The assay is described as above. In kind it is biochemical.
Procedure: as §1

Assay [36] concerns P. aeruginosa CIP105250 (OXA-15). The assay can be described thus: MIC broth microdilution, compounds alone. To be noted: Pseudomonas aeruginosa, CIP105250, read-out: MIC compounds of the invention alone.
Setting [37] is: CIP107051, read-out: MIC compounds of the invention alone.
The mark [38] stands for this setting: read-out: MIC compounds of the invention alone.
Where [39] appears, read: BAA1898, read-out: MIC compounds of the invention alone.

In brackets after ≈: the same amount, converted by molar mass. Where two headings read alike, the source gives them in different places. A value given as a limit tells only on which side of the number the result lay.

T9 sequence (Q9F663 25-293 limits assumed): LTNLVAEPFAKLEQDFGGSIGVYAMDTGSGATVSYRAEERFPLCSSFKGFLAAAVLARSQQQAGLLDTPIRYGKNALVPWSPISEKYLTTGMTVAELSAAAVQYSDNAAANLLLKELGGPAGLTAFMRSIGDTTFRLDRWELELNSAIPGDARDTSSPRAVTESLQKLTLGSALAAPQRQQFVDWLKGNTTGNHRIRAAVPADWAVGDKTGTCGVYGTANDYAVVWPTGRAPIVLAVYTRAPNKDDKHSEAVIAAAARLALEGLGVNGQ
T8 sequence (P62593 24-286 limits assumed): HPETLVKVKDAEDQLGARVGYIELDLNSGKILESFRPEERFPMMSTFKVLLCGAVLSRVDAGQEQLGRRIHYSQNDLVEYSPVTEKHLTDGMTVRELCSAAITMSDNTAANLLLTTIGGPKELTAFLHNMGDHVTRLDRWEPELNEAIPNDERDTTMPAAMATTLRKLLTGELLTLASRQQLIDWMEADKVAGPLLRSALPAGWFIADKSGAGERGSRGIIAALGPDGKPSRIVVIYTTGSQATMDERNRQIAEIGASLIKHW
T3 sequence (Q51574 22-275): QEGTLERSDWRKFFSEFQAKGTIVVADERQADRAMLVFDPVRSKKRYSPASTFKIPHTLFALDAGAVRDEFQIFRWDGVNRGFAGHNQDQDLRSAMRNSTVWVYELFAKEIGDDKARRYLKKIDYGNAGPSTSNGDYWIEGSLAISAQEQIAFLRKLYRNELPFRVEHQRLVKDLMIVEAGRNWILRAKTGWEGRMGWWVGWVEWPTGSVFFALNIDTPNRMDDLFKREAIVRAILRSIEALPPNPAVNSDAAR
T2 sequence (P13661 26-276): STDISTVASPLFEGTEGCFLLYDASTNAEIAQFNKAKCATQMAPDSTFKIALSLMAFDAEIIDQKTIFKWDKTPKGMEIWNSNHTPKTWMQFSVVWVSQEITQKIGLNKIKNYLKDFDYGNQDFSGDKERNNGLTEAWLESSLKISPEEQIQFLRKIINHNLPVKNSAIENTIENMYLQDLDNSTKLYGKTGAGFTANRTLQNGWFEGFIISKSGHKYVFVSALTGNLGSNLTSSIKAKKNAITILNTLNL
T5 sequence (Q06778 21-266): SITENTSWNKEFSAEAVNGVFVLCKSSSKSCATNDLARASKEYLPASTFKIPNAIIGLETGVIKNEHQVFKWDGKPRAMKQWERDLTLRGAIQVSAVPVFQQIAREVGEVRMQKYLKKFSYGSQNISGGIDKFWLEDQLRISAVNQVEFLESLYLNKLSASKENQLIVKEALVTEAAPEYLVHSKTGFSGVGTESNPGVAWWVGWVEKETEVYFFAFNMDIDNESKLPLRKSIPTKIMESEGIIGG
T4 sequence (Q6XEC0 23-265 limits assumed): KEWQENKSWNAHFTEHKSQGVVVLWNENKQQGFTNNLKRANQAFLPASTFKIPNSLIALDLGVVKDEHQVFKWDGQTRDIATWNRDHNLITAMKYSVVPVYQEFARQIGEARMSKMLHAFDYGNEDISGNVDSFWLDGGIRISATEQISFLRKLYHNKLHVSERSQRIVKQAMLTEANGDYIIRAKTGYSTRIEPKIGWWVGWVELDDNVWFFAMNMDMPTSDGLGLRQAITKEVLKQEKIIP
T7 sequence (Q9EXV5 entry or part of it): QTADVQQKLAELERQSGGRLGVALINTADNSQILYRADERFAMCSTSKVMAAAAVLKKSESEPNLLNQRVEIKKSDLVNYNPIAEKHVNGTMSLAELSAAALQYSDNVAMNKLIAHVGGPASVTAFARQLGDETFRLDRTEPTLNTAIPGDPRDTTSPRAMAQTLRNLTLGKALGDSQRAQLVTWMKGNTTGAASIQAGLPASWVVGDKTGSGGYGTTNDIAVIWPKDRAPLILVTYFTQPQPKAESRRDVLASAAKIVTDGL
AmpC P. aeruginosa, sequence (P24735 27-397): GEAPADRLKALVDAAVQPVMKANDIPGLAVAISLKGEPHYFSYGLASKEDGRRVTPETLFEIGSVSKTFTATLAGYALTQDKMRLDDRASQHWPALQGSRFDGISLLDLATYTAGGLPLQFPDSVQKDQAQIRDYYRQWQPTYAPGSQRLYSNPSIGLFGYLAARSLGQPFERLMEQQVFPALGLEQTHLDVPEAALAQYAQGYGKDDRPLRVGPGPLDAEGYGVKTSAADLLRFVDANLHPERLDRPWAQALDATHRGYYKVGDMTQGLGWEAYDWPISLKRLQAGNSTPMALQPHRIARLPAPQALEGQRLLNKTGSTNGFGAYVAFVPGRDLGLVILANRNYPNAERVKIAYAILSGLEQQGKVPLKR
T6 sequence (P0AD64 22-286): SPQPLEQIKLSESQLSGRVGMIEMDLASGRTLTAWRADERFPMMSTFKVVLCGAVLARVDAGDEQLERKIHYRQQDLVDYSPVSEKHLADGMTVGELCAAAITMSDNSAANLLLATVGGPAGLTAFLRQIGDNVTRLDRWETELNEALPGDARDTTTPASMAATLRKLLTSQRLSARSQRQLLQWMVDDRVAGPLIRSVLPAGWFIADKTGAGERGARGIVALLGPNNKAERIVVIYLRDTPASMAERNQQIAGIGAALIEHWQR
T1 sequence (P05364 21-381): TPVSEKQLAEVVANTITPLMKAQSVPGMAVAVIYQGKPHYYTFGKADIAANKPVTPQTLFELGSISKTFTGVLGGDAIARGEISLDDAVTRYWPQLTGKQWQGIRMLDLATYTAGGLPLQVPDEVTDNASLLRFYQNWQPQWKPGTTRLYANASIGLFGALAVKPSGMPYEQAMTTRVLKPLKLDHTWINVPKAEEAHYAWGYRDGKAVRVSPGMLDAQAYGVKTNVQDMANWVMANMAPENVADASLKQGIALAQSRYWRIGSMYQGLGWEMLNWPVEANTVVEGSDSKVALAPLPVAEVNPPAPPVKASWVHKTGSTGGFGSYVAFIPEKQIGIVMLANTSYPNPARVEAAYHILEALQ

On to `CC(C)(O/N=C(\C(=O)N[C@@H]1C(=O)N2C(C(=O)[O-])=C(C[n+]3ccccc3)CS[C@H]12)c1csc(N)n1)C(=O)O` [CAZ, ceftazidime, reference compound], for which the MIC is greater than 128 µg/mL in assay [1]; 256 µg/mL in assay [2] (CIP107051, read-out: MIC CAZ); 128 µg/mL in assay [3]; 128 µg/mL in assay [4]; 256 µg/mL in assay [5] (read-out: MIC CAZ); greater than 128 µg/mL in assay [6]. Also, the MIC in [7] was 64 µg/mL; in assay [8], greater than 128 µg/mL; in [9], greater than 128 µg/mL; in assay [10] it was 32 µg/mL; in assay [11] it was greater than 128 µg/mL; in [12] (read-out: MIC CAZ) it was 128 µg/mL. Further, the MIC was 256 µg/mL (≈ 468 µM) in [13] (BAA1898, read-out: MIC CAZ); greater than 128 µg/mL in assay [14]; greater than 128 µg/mL in [15]; 128 µg/mL in assay [16]; greater than 128 µg/mL in assay [17]; 128 µg/mL in assay [18] (read-out: MIC CAZ). Also, the MIC in [19] was determined as 128 µg/mL; in [20], 64 µg/mL; in assay [21], 128 µg/mL; in assay [22] (read-out: MIC CAZ) it was 0.5 µg/mL; in assay [23], 64 µg/mL; in assay [24], 2 µg/mL. For the same compound, the MIC in [25] (read-out: MIC CAZ) was determined as 0.5 µg/mL.

As to `N=C(N)NCCn1c2c(sc1=O)C1CN(C2)C(=O)N1OS(=O)(=O)[O-].[Na+]` (stereo not drawn) [Example 6, Sodium and 2,2,2-trifluoroacetate [5-(2-quanidiniumethyl)-4,9-dioxo-3-thia-5,8,10-triaza-tricyclo[6.2.1.0^2.6]undec-2(6)-en-10-yl] sulfate], the IC50 came to 380 nM in [26]; 1700 nM in [27]; 120 nM in assay [28]; 1.6 nM in [29]; 130 nM in [30]; 12 nM in assay [31]. Also, the IC50 in [32] came to 1500 nM; in assay [33], 5.4 nM; in assay [34] it was 7 nM; in [35], 5.7 nM. Besides, the MIC in [2] (setting [37]) is 8 µg/mL; in assay [5] (setting [38]), greater than 32 µg/mL; in assay [12] (setting [38]), 1 µg/mL; in [13] (setting [39]) it was 16 µg/mL; in [18] (setting [38]), 1 µg/mL; in [36], 8 µg/mL. Besides, the MIC in assay [25] (setting [38]) turned out to be 4 µg/mL. The “MIC of CAZ in combination with compound at 4 μg/mL” value was 8 µg/mL in [2]; no more than 0.125 µg/mL in [5] (strain 6299, compound fixed at 4 μg/mL); less than 0.25 µg/mL in assay [12]; no more than 0.125 µg/mL in [13]; less than 0.25 µg/mL in assay [18].

`CC(C)(C)OC(=O)NCCn1c2c(sc1=O)C1CN(C2)C(=O)N1OS(=O)(=O)[O-].[Na+]` (stereo not drawn) [Example 3, Sodium [5-(2-(tert-butoxycarbonylamino)ethyl)-4,9-dioxo-3-thia-5,8,10-triaza-tricyclo[6.2.1.0^2.6]undec-2(6)-en-10-yl] sulfate]: the IC50 in assay [26] worked out at 5.9 nM; in assay [27], 130 nM; in assay [28] it was 97 nM; in assay [29], 1.7 nM; in [30], 16 nM; in [31] it was 20 nM. The IC50 in assay [32] was found to be 200 nM; in [33], 0.49 nM; in [34], 5.8 nM; in assay [35], 3.4 nM. The MIC in [2] (setting [37]), in [5] (setting [38]), in assay [12] (setting [38]), in [13] (setting [39]), in assay [18] (setting [38]) and in [22] (setting [38]) was greater than 32 µg/mL in each case. The MIC in assay [36] and in [25] (setting [38]) was greater than 32 µg/mL throughout. The “MIC of CAZ in combination with compound at 4 μg/mL” value in [2] is 64 µg/mL; in assay [12] it was 128 µg/mL; in [13] it was greater than 128 µg/mL; in assay [18], 32 µg/mL.
